Test results reported in the supplement of paper PMC13380429.

Key:
Conditions in all cases: 72 h
Caco-2 [1] = assay: relative viability EC50 (midpoint between 100% and the lowest measured viability); higher = less toxic
HepG2 [2] = assay: as above
Vero E6 [3] = assay: as above
U2OS [4] = assay: as above
Calu-3 [5] = assay: as above
Caco-2 [6] = assay: drug sensitivity score (DSS) for viability; higher = more toxic; extreme values may be limits of the assay
HepG2 [7] = assay: as above
Vero E6 [8] = assay: as above
U2OS [9] = assay: as above
Calu-3 [10] = assay: as above
Caco-2 [11] = assay: cell viability relative to DMSO; higher = less toxic
HepG2 [12] = assay: as above
Vero E6 [13] = assay: as above
U2OS [14] = assay: as above
Calu-3 [15] = assay: as above

In the case of `N#Cc1cnc2cnc(NCc3cccnc3)cc2c1Nc1ccc(F)c(Cl)c1` [TC-S-7006], the “relative viability EC50” value (Caco-2 [1]) was over 10 µM, the “relative viability EC50” value (HepG2 [2]) was 1.85 µM and the “relative viability EC50” value (Vero E6 [3]) was over 10 µM. The “relative viability EC50” value (U2OS [4]) was over 10 µM, the “relative viability EC50” value (Calu-3 [5]) was over 10 µM and the drug sensitivity score (Caco-2 [6]) was 1.9. It also gave a drug sensitivity score (HepG2 [7]) of 4.1, a drug sensitivity score (Vero E6 [8]) of 0 and a drug sensitivity score (U2OS [9]) of 0.4. The drug sensitivity score (Calu-3 [10]) was 0, the cell viability (Caco-2 [11]; 1 nM) was 93.3% and the cell viability (Caco-2 [11]; 10 nM) was 99%. For the same compound, the cell viability (Caco-2 [11]; 100 nM) was 91.1%, the cell viability (Caco-2 [11]; 1000 nM) was 88.3% and the cell viability (Caco-2 [11]; 10000 nM) was 75.6%. For the same compound, the cell viability (HepG2 [12]; 1 nM) was 102%, the cell viability (HepG2 [12]; 10 nM) was 93% and the cell viability (HepG2 [12]; 100 nM) was 107%. It also gave a cell viability (HepG2 [12]; 1000 nM) of 91.2%, a cell viability (HepG2 [12]; 10000 nM) of 50% and a cell viability (Vero E6 [13]; 1 nM) of 97.2%. It also gave a cell viability (Vero E6 [13]; 10 nM) of 94.1%, a cell viability (Vero E6 [13]; 100 nM) of 94% and a cell viability (Vero E6 [13]; 1000 nM) of 85.8%. The cell viability (Vero E6 [13]; 10000 nM) was 95.4%, the cell viability (U2OS [14]; 1 nM) was 96.3% and the cell viability (U2OS [14]; 10 nM) was 106%. The cell viability (U2OS [14]; 100 nM) was 96.1%, the cell viability (U2OS [14]; 1000 nM) was 96.8% and the cell viability (U2OS [14]; 10000 nM) was 85.2%. For the same compound, the cell viability (Calu-3 [15]; 1 nM) was 96.6%, the cell viability (Calu-3 [15]; 10 nM) was 96.8% and the cell viability (Calu-3 [15]; 100 nM) was 96.9%. It also gave a cell viability (Calu-3 [15]; 1000 nM) of 91.8% and a cell viability (Calu-3 [15]; 10000 nM) of 89%.
With `Nc1nccc(/C=C/c2ccccc2)n1` [TCN238] the “relative viability EC50” value (Caco-2 [1]) was over 10 µM, the “relative viability EC50” value (HepG2 [2]) was over 10 µM and the “relative viability EC50” value (Vero E6 [3]) was over 10 µM. For the same compound, the “relative viability EC50” value (U2OS [4]) was over 10 µM, the “relative viability EC50” value (Calu-3 [5]) was over 10 µM and the drug sensitivity score (Caco-2 [6]) was 0.4. The drug sensitivity score (HepG2 [7]) was 0, the drug sensitivity score (Vero E6 [8]) was 0 and the drug sensitivity score (U2OS [9]) was 0. For the same compound, the drug sensitivity score (Calu-3 [10]) was 0, the cell viability (Caco-2 [11]; 1 nM) was 89.6% and the cell viability (Caco-2 [11]; 10 nM) was 98%. The cell viability (Caco-2 [11]; 100 nM) was 89.2%, the cell viability (Caco-2 [11]; 1000 nM) was 100% and the cell viability (Caco-2 [11]; 10000 nM) was 83.2%. The cell viability (HepG2 [12]; 1 nM) was 110%, the cell viability (HepG2 [12]; 10 nM) was 92.9% and the cell viability (HepG2 [12]; 100 nM) was 112%. It also gave a cell viability (HepG2 [12]; 1000 nM) of 97.3%, a cell viability (HepG2 [12]; 10000 nM) of 105% and a cell viability (Vero E6 [13]; 1 nM) of 104%. The cell viability (Vero E6 [13]; 10 nM) was 98.6%, the cell viability (Vero E6 [13]; 100 nM) was 101% and the cell viability (Vero E6 [13]; 1000 nM) was 97.7%. The cell viability (Vero E6 [13]; 10000 nM) was 103%, the cell viability (U2OS [14]; 1 nM) was 96% and the cell viability (U2OS [14]; 10 nM) was 99.9%. It also gave a cell viability (U2OS [14]; 100 nM) of 97.6%, a cell viability (U2OS [14]; 1000 nM) of 103% and a cell viability (U2OS [14]; 10000 nM) of 97.5%. For the same compound, the cell viability (Calu-3 [15]; 1 nM) was 98.7%, the cell viability (Calu-3 [15]; 10 nM) was 97.9% and the cell viability (Calu-3 [15]; 100 nM) was 99.4%. The cell viability (Calu-3 [15]; 1000 nM) was 102% and the cell viability (Calu-3 [15]; 10000 nM) was 103%.
In the case of `Cn1c2cc([S+](C)[O-])sc2c2cnn(Cc3cccc(N)c3)c(=O)c21` (stereo not given) [TEPP-46], the “relative viability EC50” value (Caco-2 [1]) was over 10 µM, the “relative viability EC50” value (HepG2 [2]) was over 10 µM and the “relative viability EC50” value (Vero E6 [3]) was over 10 µM. For the same compound, the “relative viability EC50” value (U2OS [4]) was over 10 µM, the “relative viability EC50” value (Calu-3 [5]) was over 10 µM and the drug sensitivity score (Caco-2 [6]) was 0. The drug sensitivity score (HepG2 [7]) was 0, the drug sensitivity score (Vero E6 [8]) was 0 and the drug sensitivity score (U2OS [9]) was 0. It also gave a drug sensitivity score (Calu-3 [10]) of 0, a cell viability (Caco-2 [11]; 1 nM) of 98.7% and a cell viability (Caco-2 [11]; 10 nM) of 98.3%. For the same compound, the cell viability (Caco-2 [11]; 100 nM) was 92.7%, the cell viability (Caco-2 [11]; 1000 nM) was 98.1% and the cell viability (Caco-2 [11]; 10000 nM) was 89%. It also gave a cell viability (HepG2 [12]; 1 nM) of 119%, a cell viability (HepG2 [12]; 10 nM) of 103% and a cell viability (HepG2 [12]; 100 nM) of 111%. For the same compound, the cell viability (HepG2 [12]; 1000 nM) was 98.5%, the cell viability (HepG2 [12]; 10000 nM) was 102% and the cell viability (Vero E6 [13]; 1 nM) was 103%. It also gave a cell viability (Vero E6 [13]; 10 nM) of 97.4%, a cell viability (Vero E6 [13]; 100 nM) of 106% and a cell viability (Vero E6 [13]; 1000 nM) of 96.3%. For the same compound, the cell viability (Vero E6 [13]; 10000 nM) was 91.9%, the cell viability (U2OS [14]; 1 nM) was 98.3% and the cell viability (U2OS [14]; 10 nM) was 97.1%. The cell viability (U2OS [14]; 100 nM) was 97.8%, the cell viability (U2OS [14]; 1000 nM) was 100% and the cell viability (U2OS [14]; 10000 nM) was 98.7%. For the same compound, the cell viability (Calu-3 [15]; 1 nM) was 104%, the cell viability (Calu-3 [15]; 10 nM) was 97.6% and the cell viability (Calu-3 [15]; 100 nM) was 96.7%. The cell viability (Calu-3 [15]; 1000 nM) was 94.7% and the cell viability (Calu-3 [15]; 10000 nM) was 94.7%.
